{"source": "ChEMBL document CHEMBL3580644", "about": "“Synthesis of piperlongumine analogues and discovery of nuclear factor erythroid 2-related factor 2 (Nrf2) activators as potential neuroprotective agents” (J Med Chem, 2015)", "key": {"[1]": {"assay": "Cytotoxicity against human L02 cells assessed as reduction in cell viability at 100 uM incubated for 24 hrs by MTT assay", "type": "cell-based", "conditions": "l02, 24 h"}, "[2]": {"assay": "Cytotoxicity against rat PC12 cells assessed as reduction in cell viability at 100 uM incubated for 24 hrs by MTT assay", "type": "cell-based", "conditions": "pc-12, 24 h"}, "PC-12 [3]": {"tested_on": "PC-12", "assay": "Cytoprotection activity against 6-OHDA-induced cytotoxicity in rat PC12 cells assessed as cell viability at 20 uM pre-incubated for 24 hrs before 6-OHDA exposure for 12 hrs by MTT assay", "type": "functional, cell-based"}, "PC-12 [4]": {"tested_on": "PC-12", "assay": "Cytoprotection activity against H2O2-induced cytotoxicity in rat PC12 cells assessed as cell viability at 20 uM pre-incubated for 24 hrs before H2O2 exposure for 12 hrs by MTT assay", "type": "functional, cell-based"}, "[5]": {"assay": "Cytotoxicity against rat PC12 cells assessed as reduction in cell viability at 20 uM incubated for 24 hrs by MTT assay", "type": "cell-based", "conditions": "pc-12, 24 h"}, "[6]": {"assay": "Cytotoxicity against rat PC12 cells assessed as reduction in cell viability at 20 uM to 100 uM incubated for 24 hrs by MTT assay", "type": "cell-based", "conditions": "pc-12, 24 h"}, "[7]": {"assay": "Cytotoxicity against human L02 cells assessed as reduction in cell viability at 20 uM to 100 uM incubated for 24 hrs by MTT assay", "type": "cell-based", "conditions": "l02, 24 h"}, "[8]": {"assay": "Antioxidant activity assessed as ABTS radical scavenging activity at 20 uM incubated for 30 mins by spectrophotometry", "type": "physicochemical", "conditions": "0.5 h"}, "[9]": {"assay": "Antioxidant activity assessed as DPPH radical scavenging activity at 20 uM incubated for 30 mins by spectrophotometry", "type": "physicochemical", "conditions": "0.5 h"}}, "note": "Activity calls are given as the source filed them. No cut-off for these calls is given here.", "data": [{"smiles": "O=C(/C=C/c1ccc(C(F)(F)F)cc1)N1CCCCCC1=O", "values": [{"measurement": "Activity", "setting": "[1]", "result": "Toxic"}, {"measurement": "Activity", "setting": "[2]", "result": "Toxic"}, {"measurement": "Activity", "setting": "PC-12 [3]", "result": "Active"}, {"measurement": "Activity", "setting": "PC-12 [4]", "result": "Active"}, {"measurement": "Activity", "setting": "[5]", "result": "Non-toxic"}]}, {"smiles": "COc1cc(/C=C/C(=O)N2CCCCCC2=O)cc(OC)c1OC", "values": [{"measurement": "Activity", "setting": "PC-12 [3]", "result": "Active"}, {"measurement": "Activity", "setting": "PC-12 [4]", "result": "Active"}, {"measurement": "Activity", "setting": "[6]", "result": "Non-toxic"}, {"measurement": "Activity", "setting": "[5]", "result": "Non-toxic"}, {"measurement": "Activity", "setting": "[7]", "result": "Non-toxic"}]}, {"smiles": "O=C(/C=C/c1ccc(Br)cc1)N1CCCCC1=O", "values": [{"measurement": "Activity", "setting": "[1]", "result": "Toxic"}, {"measurement": "Activity", "setting": "[2]", "result": "Toxic"}, {"measurement": "Activity", "setting": "PC-12 [3]", "result": "Active"}, {"measurement": "Activity", "setting": "PC-12 [4]", "result": "Active"}, {"measurement": "Activity", "setting": "[5]", "result": "Non-toxic"}]}, {"smiles": "O=C(/C=C/c1ccc(O)cc1)N1CCCC1=O", "values": [{"measurement": "Activity", "setting": "[8]", "result": "Active"}, {"measurement": "Activity", "setting": "PC-12 [3]", "result": "Active"}, {"measurement": "Activity", "setting": "[9]", "result": "Active"}, {"measurement": "Activity", "setting": "PC-12 [4]", "result": "Active"}, {"measurement": "Activity", "setting": "[6]", "result": "Non-toxic"}, {"measurement": "Activity", "setting": "[5]", "result": "Non-toxic"}, {"measurement": "Activity", "setting": "[7]", "result": "Non-toxic"}]}, {"smiles": "O=C(/C=C/c1ccccc1)N1CCCCCC1=O", "values": [{"measurement": "Activity", "setting": "[1]", "result": "Toxic"}, {"measurement": "Activity", "setting": "[2]", "result": "Toxic"}, {"measurement": "Activity", "setting": "PC-12 [3]", "result": "Active"}, {"measurement": "Activity", "setting": "PC-12 [4]", "result": "Active"}, {"measurement": "Activity", "setting": "[5]", "result": "Non-toxic"}]}, {"smiles": "O=C(/C=C/c1ccc([N+](=O)[O-])cc1)N1CCCCC1=O", "values": [{"measurement": "Activity", "setting": "[1]", "result": "Toxic"}, {"measurement": "Activity", "setting": "[2]", "result": "Toxic"}, {"measurement": "Activity", "setting": "PC-12 [3]", "result": "Active"}, {"measurement": "Activity", "setting": "PC-12 [4]", "result": "Active"}, {"measurement": "Activity", "setting": "[5]", "result": "Non-toxic"}]}, {"smiles": "O=C(/C=C/c1ccc(C(F)(F)F)cc1)N1CCCC1=O", "values": [{"measurement": "Activity", "setting": "[1]", "result": "Toxic"}, {"measurement": "Activity", "setting": "[2]", "result": "Toxic"}, {"measurement": "Activity", "setting": "PC-12 [3]", "result": "Active"}, {"measurement": "Activity", "setting": "PC-12 [4]", "result": "Active"}, {"measurement": "Activity", "setting": "[5]", "result": "Non-toxic"}]}, {"smiles": "O=C(/C=C/c1ccccc1)N1CCCCC1=O", "values": [{"measurement": "Activity", "setting": "[1]", "result": "Toxic"}, {"measurement": "Activity", "setting": "[2]", "result": "Toxic"}, {"measurement": "Activity", "setting": "PC-12 [3]", "result": "Active"}, {"measurement": "Activity", "setting": "PC-12 [4]", "result": "Active"}, {"measurement": "Activity", "setting": "[5]", "result": "Non-toxic"}]}, {"smiles": "COc1cc(/C=C/C(=O)N2CCC=CC2=O)cc(OC)c1OC", "note": "[PIPLARTINE]", "values": [{"measurement": "Activity", "setting": "[6]", "result": "Toxic"}, {"measurement": "Activity", "setting": "[5]", "result": "Toxic"}, {"measurement": "Activity", "setting": "[7]", "result": "Toxic"}]}, {"smiles": "COc1ccc(/C=C/C(=O)N2CCCC2=O)cc1OC", "values": [{"measurement": "Activity", "setting": "PC-12 [3]", "result": "Active"}, {"measurement": "Activity", "setting": "PC-12 [4]", "result": "Active"}, {"measurement": "Activity", "setting": "[6]", "result": "Non-toxic"}, {"measurement": "Activity", "setting": "[5]", "result": "Non-toxic"}, {"measurement": "Activity", "setting": "[7]", "result": "Non-toxic"}]}, {"smiles": "O=C(/C=C/c1ccccc1)N1CCCC1=O", "values": [{"measurement": "Activity", "setting": "[1]", "result": "Toxic"}, {"measurement": "Activity", "setting": "[2]", "result": "Toxic"}, {"measurement": "Activity", "setting": "PC-12 [3]", "result": "Active"}, {"measurement": "Activity", "setting": "PC-12 [4]", "result": "Active"}, {"measurement": "Activity", "setting": "[5]", "result": "Non-toxic"}]}, {"smiles": "COc1cc(CCC(=O)N2CCCCC2=O)cc(OC)c1OC", "note": "[TETRAHYDROPIPLARTINE]", "values": [{"measurement": "Activity", "setting": "PC-12 [3]", "result": "inactive"}, {"measurement": "Activity", "setting": "PC-12 [4]", "result": "inactive"}, {"measurement": "Activity", "setting": "[6]", "result": "Non-toxic"}, {"measurement": "Activity", "setting": "[5]", "result": "Non-toxic"}, {"measurement": "Activity", "setting": "[7]", "result": "Non-toxic"}]}, {"smiles": "O=C(/C=C/c1ccc(C(F)(F)F)cc1)N1CCCCC1=O", "values": [{"measurement": "Activity", "setting": "[1]", "result": "Toxic"}, {"measurement": "Activity", "setting": "[2]", "result": "Toxic"}, {"measurement": "Activity", "setting": "PC-12 [3]", "result": "Active"}, {"measurement": "Activity", "setting": "PC-12 [4]", "result": "Active"}, {"measurement": "Activity", "setting": "[5]", "result": "Non-toxic"}]}, {"smiles": "O=C(/C=C/c1ccc(Br)cc1)N1CCCC1=O", "values": [{"measurement": "Activity", "setting": "[1]", "result": "Toxic"}, {"measurement": "Activity", "setting": "[2]", "result": "Toxic"}, {"measurement": "Activity", "setting": "PC-12 [3]", "result": "Active"}, {"measurement": "Activity", "setting": "PC-12 [4]", "result": "Active"}, {"measurement": "Activity", "setting": "[5]", "result": "Non-toxic"}]}, {"smiles": "COc1ccc(/C=C/C(=O)N2CCCCC2=O)cc1", "values": [{"measurement": "Activity", "setting": "PC-12 [3]", "result": "Active"}, {"measurement": "Activity", "setting": "PC-12 [4]", "result": "Active"}, {"measurement": "Activity", "setting": "[6]", "result": "Non-toxic"}, {"measurement": "Activity", "setting": "[5]", "result": "Non-toxic"}, {"measurement": "Activity", "setting": "[7]", "result": "Non-toxic"}]}, {"smiles": "O=C(/C=C/c1ccc([N+](=O)[O-])cc1)N1CCCCCC1=O", "values": [{"measurement": "Activity", "setting": "[1]", "result": "Toxic"}, {"measurement": "Activity", "setting": "[2]", "result": "Toxic"}, {"measurement": "Activity", "setting": "PC-12 [3]", "result": "Active"}, {"measurement": "Activity", "setting": "PC-12 [4]", "result": "Active"}, {"measurement": "Activity", "setting": "[5]", "result": "Non-toxic"}]}, {"smiles": "COc1cc(/C=C/C(=O)N2CCCC2=O)cc(OC)c1OC", "values": [{"measurement": "Activity", "setting": "PC-12 [3]", "result": "Active"}, {"measurement": "Activity", "setting": "PC-12 [4]", "result": "Active"}, {"measurement": "Activity", "setting": "[6]", "result": "Non-toxic"}, {"measurement": "Activity", "setting": "[5]", "result": "Non-toxic"}, {"measurement": "Activity", "setting": "[7]", "result": "Non-toxic"}]}]}
